Values of other authors, collected in patent US20240199640A1, “NEGATIVE ALLOSTERIC MODULATORS OF METABOTROPIC GLUTAMATE RECEPTOR 2” (priority 2021, published 2024).

How the values were obtained:
[1] = tested on: rat; settings: normal animals; cited from earlier work
[2] = tested on: olfactory bulbectomized rats; settings: repeated administration for 14 days; cited from earlier work
[3] = tested on: mouse; settings: normal animals; cited from earlier work
[4] = conditioned fear stress; cited from earlier work
[5] = treatment for 7 days; cited from earlier work
[6] = tested on: social isolation-reared mice; settings: cited from earlier work
[7] = tested on: mice; settings: treated mice; cited from earlier work

Compound: N[C@]1(C(=O)O)[C@H]2[C@@H](C[C@H]1OCc1ccc(Cl)c(Cl)c1)[C@]2(F)C(=O)O [MGS0039]
- Antidepressant-like effects in rat forced swim test [1]: Antidepressant-like effects
- hyperactivity in the open field test [2]: attenuated
- learning deficit in the passive avoidance test [2]: attenuated
- Antidepressant-like effects in mouse tail-suspension test [3]: Antidepressant-like effects
- freezing behavior [4]: significantly decreased
- number of escape failures [5]: significantly reduced
- increased immobility in the FST [6]: reversed
- marble-burying behavior [7]: reduced
- spontaneous locomotor activity [7]: no significant change
